Assays:
[1] = system: chromaffin granule membrane; test: ATP transport (uptake of radiolabeled ATP) in chromaffin granule membrane vesicles; format: biochemical, cattle; conditions: role: inhibitor; 1 mM 3H-ATP, 30° C., 1 hour, N=3 (FIG. 5); read-out: IC50 (concentration at 50% inhibition) of ATP transport
Experimental: Chromaffin granule membranes were prepared from adrenal glands collected from slaughtered cattle according to Reference A (Nathan Nelson et al., 1988, Chromaffin Granule Proton Pump, Methods in Enzymology, 157, 619-633). Chromaffin granule membranes prepared by sucrose density gradient centrifugation were suspended in 2 ml of SME buffer (20 mM MOPS-tris (pH 7.0), 0.3 M sucrose, 5 mM EDTA, 10 μg/ml leupeptin, and 10 μg/ml pepstatin)+25% glycerol, and the resulting suspension was aliquoted and stored at −80° C. Under these conditions, the ATP transport activity, the V-ATPase activity, and the catecholamine transport activity remain fully active for at least one year.
An ATP transport inhibition experiment for the chromaffin granule membrane was carried out according to Reference B (Yoshinori Moriyama et al., 2022, Is the vesicular nucleotide transporter a molecular target of eicosapentaenoic acid?, Frontiers in Pharmacology, 103389). About 20 μg of chromaffin granule membranes were added to 0.5 ml of measurement buffer (20 mM MOPS-tris (pH 7.0), 0.3 M sucrose, 5 mM potassium chloride, 5 mM magnesium acetate, 5 mM creatine phosphate, 10 units of creatine kinase, and 1 mM 3[H]-ATP [15 KBq/assay]), followed by incubation at 30° C. for 1 hour. Through a Millipore MCE membrane filter with a pore size […], 0.2 ml of the reaction liquid was filtered by suction. Thereafter, the filter was washed with 10 ml of 20 mM MOPS-tris (pH 7.0), 0.3 M sucrose, 5 mM potassium chloride, and 5 mM magnesium acetate, and dissolved in 10 ml of Clear-sol II (manufactured by Nacalai Tesque, Inc.). The radioactivity was then measured using a liquid scintillation counter (N=3).
The reaction was initiated by adding 50 mM ^3[H]-ATP to a final concentration of 1 mM. The 50 mM ^3[H]-ATP was prepared by mixing an ATP-tris solution (manufactured by Sigma-Aldrich) with [2,8-^3H]adenosine triphosphate tetrasodium salt (26.0 Ci/mmol) (manufactured by New England Nuclear). PEP was used as a test reagent, and pyruvic acid was used as a negative control. Five minutes before the addition of ATP, PEP or pyruvic acid, as a solution in 20 mM MOPS-tris (pH 7.0), 0.3 M sucrose, 5 mM potassium chloride, and 5 mM magnesium acetate, was added to the measurement liquid to a final PEP concentration of 0.02, 0.05, 0.1, 0.2, 0.4, or 1 mM, or to a final pyruvic acid concentration of 0.5 or 1 mM.
Chromaffin granule membrane vesicles were prepared in the same manner as in Example 5, and uptake of radiolabeled ATP into the vesicles was measured. Transport activity of catecholamine (dopamine) and ATP-dependent proton transport by V-ATPase were also measured in the same manner as in Example 5.

ATP secretion = conditions: known; cited from earlier work
VNUT = conditions: known; cited from earlier work
mouse auricle [2] = test: Imiquimod-induced psoriasis model, oral imeglimin (Example 18); format: in vivo
Experimental: Experimental psoriatic symptoms were induced in a mouse auricle by imiquimod. Six-week-old male C57BL/6 mice (N=5) were acclimated for one week. On Days 1 to 7, 62.5 mg of 5% imiquimod cream (Beselna Cream 5%) (3.125 mg in terms of the active ingredient, manufactured by Mochida Pharmaceutical Co. Ltd.) was applied to the right auricle of the mice for 7 consecutive days (IMQ group). Once daily after the imiquimod application, the imeglimin administration group (IMQ+IMG group) received oral administration, at 40 mg/kg, of 500-mg Twymeeg (trademark) tablets (manufactured by Sumitomo Pharma Co. Ltd.) dissolved in physiological saline. The control group received an equal volume of physiological saline. On Day 8, the mice were euthanized by cervical dislocation, and auricle thickness was measured using a dial thickness gauge (manufactured by Adachi Sogyo Co., Ltd.).
Each excised mouse auricle was fixed in 4% paraformaldehyde at 4° C. overnight. After ethanol substitution, the auricle was embedded in paraffin, sectioned using a rotary microtome Leica RM2165 (thickness, […]), and subjected to HE staining or immunohistochemical staining. For the immunohistochemical staining, the sections were deparaffinized, washed in xylene, and rehydrated through graded alcohols. The sections were incubated in DAKO at 95° C. for 30 minutes. The sections were blocked at room temperature for 60 minutes and then incubated at room temperature for 2 hours to allow reaction with a TGM1 anti-rabbit polyclonal antibody (catalog number 12912-3-AP, manufactured by Proteintech). The sample was washed and then allowed to react with a secondary antibody (Alexa 544-conjugated secondary antibody (goat anti-rabbit IgG) (manufactured by Molecular Probes)) at room temperature for 60 minutes. After allowing reaction with DAPI at room temperature for 10 minutes, the sections were mounted with Fluoromount and imaged using a fluorescence microscope (BZ-X710, manufactured by Keyence).

mouse auricle [3] = test: Imiquimod-induced psoriasis relapse model (Example 20); format: in vivo; conditions: 40 mg/kg oral
Experimental: To the left auricle of each mouse, 62.5 mg of 5% imiquimod cream (Beselna Cream 5%) was applied once daily a total of seven times (Days 1 to 7) in accordance with Example 19 to induce imiquimod-induced psoriasis. Thereafter, the imiquimod treatment was interrupted, and imeglimin (40 mg/kg) was orally administered on alternate days for 2 weeks (Day 8 to 22) (IMG). Mice without administration of imeglimin were designated IMQ. On Day 23, the imiquimod treatment was resumed, and 62.5 mg of 5% imiquimod cream (Beselna Cream 5%) was applied once daily a total of […]. In parallel, imeglimin (40 mg/kg) was orally administered daily to IMG.

[4] = 40 mg/kg oral once daily, Day 8, N=5 (FIG. 33)

C=C(OP(=O)(O)O)C(=O)O [PEP, phosphoenolpyruvic acid]
IC50 [1]: 25 µM

O=P(O)(O)C(Cl)(Cl)P(=O)(O)O [clodronate]
ATP secretion inhibitory action (ATP secretion): known to have an ATP secretion inhibitory action | VNUT inhibition (VNUT): known to be a VNUT inhibitor

C[C@@H]1N=C(N)NC(N(C)C)=N1 [imeglimin]
inhibitory effect on psoriatic symptoms by TMG1 immunohistochemical images (mouse auricle [2]; 40 mg/kg oral once daily (FIG. 36)): supported by the immunohistochemical images of TMG1 | epidermal desquamation (mouse auricle [2]; [4]): eliminated epidermal desquamation | psoriatic symptoms (mouse auricle [2]; [4]): reduced the psoriatic symptoms | imiquimod-induced auricle thickening (mouse auricle [2]; 40 mg/kg oral once daily, N=5 (FIG. 34)): suppressed | relapse-preventing effect on psoriasis (mouse auricle [3]): relapse-preventing effect on psoriasis | psoriatic symptoms after resumed imiquimod treatment (mouse auricle [3]; alternate days Day 8 to 22, then daily from Day 23 (FIG. 43)): markedly reduced compared to IMQ
